{"source": "the supplement of paper PMC4862054", "data": [{"tested_on": "HDQ-P1", "test": "normalised response (% of control), CellTiter-Glo; higher = more viable cells (100 = DMSO, 0 = benzethonium chloride kill control)", "details": "incubation time: 72 h", "summary_of_the_method": "(§1)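 Plates were normalised with 0.1 % DMSO as 100 and a positive kill control as 0. Breast cancer cell lines in 20 µl suspension had been seeded into 384-well plates with compound at 5 concentrations in 10-fold steps over a compound-specific 10,000-fold range, incubated 72 h, and read for CellTox Green fluorescence (485/520 nm) followed by CellTiter-Glo luminescence. Each value is the normalised signal at a single concentration.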", "units": {"normalised response": "%"}, "values": [{"smiles": "N.N.[Cl][Pt][Cl]", "note": "[Cisplatin] (0.1 nM)", "normalised response": 101}, {"smiles": "Cc1ccc(C(=O)Nc2ccc(CN3CCN(C)CC3)c(C(F)(F)F)c2)cc1C#Cc1cnc2cccnn12", "note": "[Ponatinib] (1 nM)", "normalised response": 104}, {"smiles": "N[C@@H](CSC(c1ccccc1)(c1ccccc1)c1ccccc1)C(=O)O", "note": "[S-trityl-L-cysteine] (40 nM)", "normalised response": 119}, {"smiles": "N#CCNC(=O)c1ccc(-c2ccnc(Nc3ccc(N4CCOCC4)cc3)n2)cc1", "note": "[Momelotinib] (1 nM)", "normalised response": 100}, {"smiles": "CC(=O)Nc1ccc(C(=O)Nc2ccccc2N)cc1", "note": "[Tacedinaline] (1 nM)", "normalised response": 98.9}, {"smiles": "NC(=O)Nc1cc(-c2cccc(F)c2)sc1C(=O)N[C@H]1CCCNC1", "note": "[AZD7762] (1 nM)", "normalised response": 91.2}, {"smiles": "C[C@]12CC[C@@H]3c4ccc(O)cc4C[C@@H](CCCCCCCCC[S+]([O-])CCCC(F)(F)C(F)(F)F)[C@H]3[C@@H]1CC[C@@H]2O", "note": "(some centres not stated) [Fulvestrant] (0.1 nM)", "normalised response": 101}, {"smiles": "CO[C@H]1/C=C\\C=C(/C)C(=O)NC2=CC(=O)C(NCCN(C)C)=C(C[C@@H](C)C[C@H](OC)[C@H](O)[C@@H](C)/C=C(\\C)[C@@H]1OC(N)=O)C2=O", "note": "[Alvespimycin] (1 nM)", "normalised response": 102}, {"smiles": "COc1cc2ncnc(Nc3ccc(F)c(Cl)c3)c2cc1NC(=O)/C=C/CN1CCCCC1", "note": "[Dacomitinib] (0.1 nM)", "normalised response": 99.8}, {"smiles": "CCCCCCCCCCCCCCCCCCOP(=O)([O-])OC1CC[N+](C)(C)CC1", "note": "[Perifosine] (0.25 nM)", "normalised response": 106}, {"smiles": "COc1cc2nccc(Oc3ccc(NC(=O)C4(C(=O)Nc5ccc(F)cc5)CC4)cc3)c2cc1OC", "note": "[Cabozantinib] (1 nM)", "normalised response": 99.3}]}, {"tested_on": "BT-474", "test": "normalised response (% of control), CellTiter-Glo; higher = more viable cells (100 = DMSO, 0 = benzethonium chloride kill control)", "details": "incubation time: 72 h", "summary_of_the_method": "as §1", "units": {"normalised response": "%"}, "values": [{"smiles": "N.N.[Cl][Pt][Cl]", "note": "[Cisplatin] (0.1 nM)", "normalised response": 101}, {"smiles": "Cc1ccc(C(=O)Nc2ccc(CN3CCN(C)CC3)c(C(F)(F)F)c2)cc1C#Cc1cnc2cccnn12", "note": "[Ponatinib] (1 nM)", "normalised response": 104}, {"smiles": "N[C@@H](CSC(c1ccccc1)(c1ccccc1)c1ccccc1)C(=O)O", "note": "[S-trityl-L-cysteine] (40 nM)", "normalised response": 96.7}, {"smiles": "N#CCNC(=O)c1ccc(-c2ccnc(Nc3ccc(N4CCOCC4)cc3)n2)cc1", "note": "[Momelotinib] (1 nM)", "normalised response": 89.8}, {"smiles": "CC(=O)Nc1ccc(C(=O)Nc2ccccc2N)cc1", "note": "[Tacedinaline] (1 nM)", "normalised response": 105}, {"smiles": "NC(=O)Nc1cc(-c2cccc(F)c2)sc1C(=O)N[C@H]1CCCNC1", "note": "[AZD7762] (1 nM)", "normalised response": 114}, {"smiles": "C[C@]12CC[C@@H]3c4ccc(O)cc4C[C@@H](CCCCCCCCC[S+]([O-])CCCC(F)(F)C(F)(F)F)[C@H]3[C@@H]1CC[C@@H]2O", "note": "(some centres not stated) [Fulvestrant] (0.1 nM)", "normalised response": 101}, {"smiles": "CO[C@H]1/C=C\\C=C(/C)C(=O)NC2=CC(=O)C(NCCN(C)C)=C(C[C@@H](C)C[C@H](OC)[C@H](O)[C@@H](C)/C=C(\\C)[C@@H]1OC(N)=O)C2=O", "note": "[Alvespimycin] (1 nM)", "normalised response": 120}, {"smiles": "COc1cc2ncnc(Nc3ccc(F)c(Cl)c3)c2cc1NC(=O)/C=C/CN1CCCCC1", "note": "[Dacomitinib] (0.1 nM)", "normalised response": 99}, {"smiles": "CCCCCCCCCCCCCCCCCCOP(=O)([O-])OC1CC[N+](C)(C)CC1", "note": "[Perifosine] (0.25 nM)", "normalised response": 99.4}, {"smiles": "COc1cc2nccc(Oc3ccc(NC(=O)C4(C(=O)Nc5ccc(F)cc5)CC4)cc3)c2cc1OC", "note": "[Cabozantinib] (1 nM)", "normalised response": 97.3}]}, {"tested_on": "CAL-148", "test": "normalised response (% of control), CellTiter-Glo; higher = more viable cells (100 = DMSO, 0 = benzethonium chloride kill control)", "details": "incubation time: 72 h", "summary_of_the_method": "as §1", "units": {"normalised response": "%"}, "values": [{"smiles": "N.N.[Cl][Pt][Cl]", "note": "[Cisplatin] (0.1 nM)", "normalised response": 85.7}, {"smiles": "Cc1ccc(C(=O)Nc2ccc(CN3CCN(C)CC3)c(C(F)(F)F)c2)cc1C#Cc1cnc2cccnn12", "note": "[Ponatinib] (1 nM)", "normalised response": 99.5}, {"smiles": "N[C@@H](CSC(c1ccccc1)(c1ccccc1)c1ccccc1)C(=O)O", "note": "[S-trityl-L-cysteine] (40 nM)", "normalised response": 97.5}, {"smiles": "N#CCNC(=O)c1ccc(-c2ccnc(Nc3ccc(N4CCOCC4)cc3)n2)cc1", "note": "[Momelotinib] (1 nM)", "normalised response": 94.2}, {"smiles": "CC(=O)Nc1ccc(C(=O)Nc2ccccc2N)cc1", "note": "[Tacedinaline] (1 nM)", "normalised response": 95.3}, {"smiles": "NC(=O)Nc1cc(-c2cccc(F)c2)sc1C(=O)N[C@H]1CCCNC1", "note": "[AZD7762] (1 nM)", "normalised response": 102}, {"smiles": "C[C@]12CC[C@@H]3c4ccc(O)cc4C[C@@H](CCCCCCCCC[S+]([O-])CCCC(F)(F)C(F)(F)F)[C@H]3[C@@H]1CC[C@@H]2O", "note": "(some centres not stated) [Fulvestrant] (0.1 nM)", "normalised response": 102}, {"smiles": "CO[C@H]1/C=C\\C=C(/C)C(=O)NC2=CC(=O)C(NCCN(C)C)=C(C[C@@H](C)C[C@H](OC)[C@H](O)[C@@H](C)/C=C(\\C)[C@@H]1OC(N)=O)C2=O", "note": "[Alvespimycin] (1 nM)", "normalised response": 112}, {"smiles": "COc1cc2ncnc(Nc3ccc(F)c(Cl)c3)c2cc1NC(=O)/C=C/CN1CCCCC1", "note": "[Dacomitinib] (0.1 nM)", "normalised response": 109}, {"smiles": "CCCCCCCCCCCCCCCCCCOP(=O)([O-])OC1CC[N+](C)(C)CC1", "note": "[Perifosine] (0.25 nM)", "normalised response": 99.2}, {"smiles": "COc1cc2nccc(Oc3ccc(NC(=O)C4(C(=O)Nc5ccc(F)cc5)CC4)cc3)c2cc1OC", "note": "[Cabozantinib] (1 nM)", "normalised response": 95.9}]}, {"tested_on": "MDA-MB-453", "test": "normalised response (% of control), CellTiter-Glo; higher = more viable cells (100 = DMSO, 0 = benzethonium chloride kill control)", "details": "incubation time: 72 h", "summary_of_the_method": "as §1", "units": {"normalised response": "%"}, "values": [{"smiles": "N.N.[Cl][Pt][Cl]", "note": "[Cisplatin] (0.1 nM)", "normalised response": 98.9}, {"smiles": "Cc1ccc(C(=O)Nc2ccc(CN3CCN(C)CC3)c(C(F)(F)F)c2)cc1C#Cc1cnc2cccnn12", "note": "[Ponatinib] (1 nM)", "normalised response": 98.2}, {"smiles": "N[C@@H](CSC(c1ccccc1)(c1ccccc1)c1ccccc1)C(=O)O", "note": "[S-trityl-L-cysteine] (40 nM)", "normalised response": 95}, {"smiles": "N#CCNC(=O)c1ccc(-c2ccnc(Nc3ccc(N4CCOCC4)cc3)n2)cc1", "note": "[Momelotinib] (1 nM)", "normalised response": 91.9}, {"smiles": "CC(=O)Nc1ccc(C(=O)Nc2ccccc2N)cc1", "note": "[Tacedinaline] (1 nM)", "normalised response": 103}, {"smiles": "NC(=O)Nc1cc(-c2cccc(F)c2)sc1C(=O)N[C@H]1CCCNC1", "note": "[AZD7762] (1 nM)", "normalised response": 94.1}, {"smiles": "C[C@]12CC[C@@H]3c4ccc(O)cc4C[C@@H](CCCCCCCCC[S+]([O-])CCCC(F)(F)C(F)(F)F)[C@H]3[C@@H]1CC[C@@H]2O", "note": "(some centres not stated) [Fulvestrant] (0.1 nM)", "normalised response": 112}, {"smiles": "CO[C@H]1/C=C\\C=C(/C)C(=O)NC2=CC(=O)C(NCCN(C)C)=C(C[C@@H](C)C[C@H](OC)[C@H](O)[C@@H](C)/C=C(\\C)[C@@H]1OC(N)=O)C2=O", "note": "[Alvespimycin] (1 nM)", "normalised response": 113}, {"smiles": "COc1cc2ncnc(Nc3ccc(F)c(Cl)c3)c2cc1NC(=O)/C=C/CN1CCCCC1", "note": "[Dacomitinib] (0.1 nM)", "normalised response": 99.9}, {"smiles": "CCCCCCCCCCCCCCCCCCOP(=O)([O-])OC1CC[N+](C)(C)CC1", "note": "[Perifosine] (0.25 nM)", "normalised response": 105}, {"smiles": "COc1cc2nccc(Oc3ccc(NC(=O)C4(C(=O)Nc5ccc(F)cc5)CC4)cc3)c2cc1OC", "note": "[Cabozantinib] (1 nM)", "normalised response": 105}]}, {"tested_on": "MFM-223", "test": "normalised response (% of control), CellTiter-Glo; higher = more viable cells (100 = DMSO, 0 = benzethonium chloride kill control)", "details": "incubation time: 72 h", "summary_of_the_method": "as §1", "units": {"normalised response": "%"}, "values": [{"smiles": "N.N.[Cl][Pt][Cl]", "note": "[Cisplatin] (0.1 nM)", "normalised response": 96.9}, {"smiles": "Cc1ccc(C(=O)Nc2ccc(CN3CCN(C)CC3)c(C(F)(F)F)c2)cc1C#Cc1cnc2cccnn12", "note": "[Ponatinib] (1 nM)", "normalised response": 99.5}, {"smiles": "N[C@@H](CSC(c1ccccc1)(c1ccccc1)c1ccccc1)C(=O)O", "note": "[S-trityl-L-cysteine] (40 nM)", "normalised response": 107}, {"smiles": "N#CCNC(=O)c1ccc(-c2ccnc(Nc3ccc(N4CCOCC4)cc3)n2)cc1", "note": "[Momelotinib] (1 nM)", "normalised response": 92.3}, {"smiles": "CC(=O)Nc1ccc(C(=O)Nc2ccccc2N)cc1", "note": "[Tacedinaline] (1 nM)", "normalised response": 101}, {"smiles": "NC(=O)Nc1cc(-c2cccc(F)c2)sc1C(=O)N[C@H]1CCCNC1", "note": "[AZD7762] (1 nM)", "normalised response": 102}, {"smiles": "C[C@]12CC[C@@H]3c4ccc(O)cc4C[C@@H](CCCCCCCCC[S+]([O-])CCCC(F)(F)C(F)(F)F)[C@H]3[C@@H]1CC[C@@H]2O", "note": "(some centres not stated) [Fulvestrant] (0.1 nM)", "normalised response": 107}, {"smiles": "CO[C@H]1/C=C\\C=C(/C)C(=O)NC2=CC(=O)C(NCCN(C)C)=C(C[C@@H](C)C[C@H](OC)[C@H](O)[C@@H](C)/C=C(\\C)[C@@H]1OC(N)=O)C2=O", "note": "[Alvespimycin] (1 nM)", "normalised response": 105}]}]}
